{"source": "patent US5019647A", "about": "“Gastrin releasing peptide antagonist” (Merck & Co., Inc., priority 1988, dated 1991)", "key": {"GRP receptor on SCLC": {"molecular_target": "T1, GRP receptor on SCLC (Homo sapiens, UniProt P30550)", "T1 construct": "approximately 1×10^8 H345 SCLC cells; endogenous in cells; host or cells: H345 SCLC cells", "T1 sequence (P30550 whole entry)": "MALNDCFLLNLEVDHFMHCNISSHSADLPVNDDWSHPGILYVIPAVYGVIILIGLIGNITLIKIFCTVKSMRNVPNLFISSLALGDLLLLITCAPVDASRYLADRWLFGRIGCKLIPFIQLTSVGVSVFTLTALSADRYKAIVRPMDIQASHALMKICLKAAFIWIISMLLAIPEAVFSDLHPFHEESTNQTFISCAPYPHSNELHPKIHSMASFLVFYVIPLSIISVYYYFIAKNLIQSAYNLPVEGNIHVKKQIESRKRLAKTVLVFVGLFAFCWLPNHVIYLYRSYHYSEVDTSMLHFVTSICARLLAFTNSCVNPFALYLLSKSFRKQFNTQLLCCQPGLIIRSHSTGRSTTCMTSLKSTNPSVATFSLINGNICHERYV", "experiment": "Procedure D: Stimulation of Ca2+ Release in SCLC (Fura-2 fluorescence, GRP 14-27 challenge)", "format": "cell-based", "settings": "H345 SCLC cells; 100 nM GRP14-27; read-out: blocks the Ca2+ response elicited by GRP14-27, IC50", "procedure": "Following the procedure of Heikkila et al., J Biol. Chem. 262 16456 (1987), approximately 1×10^8 H345 SCLC cells, maintained in RPMI-1640 (Ro) medium supplemented with selenium, insulin, and transferrin, were harvested by settling and washed with Ro. They were then resuspended in 2 ml Ro, to which 1.2 nmol Fura-2/AM per 10^6 cells was added. After a 15 minute incubation at 37° C., the cells were diluted to 10 ml with Ro and incubated for 1 hour at 37° C., the cells were then centrifuged and resuspended in HEPES-saline (140 mM NaCl, 5mM KCl, 5mM glucose, 1 mM CaCl2, 1 mM MgCl2, 20 mM HEPES, pH 7.4) at a density of 2.5-5×10^6 cells/ml. The cells were kept on ice for up to 2 hours before being used. Ca^2+ measurements were performed at 37° C. in an Aminco SPF-500 fluorimeter. The excitation wavelength was 340 nm, the emission wavelength 510 nm. Two ml of cell suspension was periodically resuspended in a 3 ml plastic cuvette. They were equilibrated at 37° for at least 5 minutes data was collected. After a stable baseline was established, the compound of interest was added, and data was collected for approximately 5 minutes. […] The cells were then lysed with 4 μl 10% Triton X-100 to measure peak fluorescence. Baseline fluorescence was measured after the subsequent addition of 40 μl 2M tris (pH 9.5) and 64 μl 0.2M EGTA."}, "Swiss 3T3 cells": {"test_system": "Swiss 3T3 cells", "experiment": "Procedure C: Mitogenesis Inhibition (GRP-stimulated 3H-thymidine incorporation)", "format": "cell-based", "settings": "3 nM human GRP, read-out: blocks mitogenic stimulation of human GRP, IC50", "method": "(§1) The activity of the peptide derivatives of the present invention as GRP antagonists was determined in competitive binding assays with a radio-active GRP derivative. Swiss 3T3 fibroblasts were used in these tests as the source of GRP receptor. Because these cells respond to GRP binding with a rapid increase in DNA synthesis, compounds that bind to the GRP receptor can also be tested for their ability to stimulate DNA synthesis. New DNA synthesis is one of the early steps in cell division and is widely accepted as a measure of mitogenicity or cell growth. […] Compounds which block DNA synthesis are mitogenic antagonists.\nSwiss 3T3 cells were grown in monolayer culture in 24 -well plates (Costar) in serum-free DMEM for 48 hours, at which time the GRP or a GRP homologue, the antagonist and 23 nM ^3 H-thymidine were added. After an additional 48 hours, the cell monolayer was washed twice with PBS, and the cells were then removed with 1 ml 10×trypsin containing 5 mM EDTA. The cells were harvested with a Skatron filter apparatus, and the filters counted in a scintillation counter."}, "GRP receptor": {"molecular_target": "T2, GRP receptor (Mus musculus, UniProt P21729)", "T2 construct": "Swiss 3T3 fibroblasts were used in these tests as the source of GRP receptor; endogenous in cells; host or cells: Swiss 3T3 cells (intact confluent monolayers), obtained from Dr. K. Brown", "T2 sequence (P21729 whole entry)": "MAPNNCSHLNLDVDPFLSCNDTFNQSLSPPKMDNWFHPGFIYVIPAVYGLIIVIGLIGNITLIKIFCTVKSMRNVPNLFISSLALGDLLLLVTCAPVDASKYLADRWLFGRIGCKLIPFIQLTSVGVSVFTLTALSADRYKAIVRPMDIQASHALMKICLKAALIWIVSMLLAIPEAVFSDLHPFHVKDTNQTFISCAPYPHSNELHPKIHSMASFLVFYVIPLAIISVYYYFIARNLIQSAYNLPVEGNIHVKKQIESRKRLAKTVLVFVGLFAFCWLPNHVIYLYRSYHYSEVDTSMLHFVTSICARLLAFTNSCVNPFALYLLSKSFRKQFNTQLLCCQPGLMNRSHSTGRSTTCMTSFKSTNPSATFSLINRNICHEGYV", "experiment": "Procedure A: Binding Inhibition Studies (competitive binding with [3H-Phe15] GRP15-27)", "settings": "Swiss 3T3 cells; [3H-Phe15] GRP15-27 at 3 nM; 60 minutes at 15° C.; read-out: blocks binding of the radioligand, IC50", "method": "as §1\nSwiss 3T3 cells, obtained from Dr. K. Brown (Institute of Animal Physiology, Cambridge, U.K.), were grown to confluency in Costar 12 well plates containing DMEM (Gibco) supplemented with 10% fetal bovine serum, 2 mM glutamine and 1% penicillin-streptomycin. The cells were washed twice with binding buffer [1:1 DMEM: Waymouths MB752/1 medium, plus 1 mg/ml BSA (Fraction V, Calbiochem)]. The antagonist was dissolved in 10 mM HCl, and diluted to the appropriate concentration in binding buffer. The antagonist was then added to the cells, followed by [3H-Phe^15 ] GRP15-27 at a final concentration of 3 nM. […]"}}, "note": "Residues, ends and D or L forms follow the SMILES beside them. *: point of attachment. X1 = CCOC[C@H](CC(C)C)N*", "data": [{"smiles": "CCOC[C@H](CC(C)C)NC(=O)[C@H](Cc1c[nH]cn1)NC(=O)CNC(=O)[C@@H](NC(=O)[C@H](C)NC(=O)[C@H](Cc1c[nH]c2ccccc12)NC(=O)[C@H](Cc1c[nH]cn1)NC(C)=O)C(C)C", "note": "[Example 1, Ac-His-Trp-Ala-Val-Gly-His-NHCHCH2 OCH5] (Ac-HWAVGH-X1)", "values": [{"measurement": "IC50", "setting": "GRP receptor on SCLC", "result": "~300", "unit": "nM"}, {"measurement": "IC50", "setting": "Swiss 3T3 cells", "result": "~20", "unit": "nM"}, {"measurement": "IC50", "setting": "GRP receptor", "result": "~5", "unit": "nM"}]}]}
